# Patent US11213509B2, “Compositions and methods for treating traumatic brain injury” (Ischemix, LLC, priority 2017, dated 2022)
# Assays:
# [1] = test system: fluid percussion model of diffused traumatic brain injury (TBI) in rats; assay: Limb placing test, fluid percussion model of diffused TBI; type: in vivo, rat; settings: vs vehicle, p<0.001, starting 1 day following TBI
# Experimental: On the day before TBI surgery (Day −1), rats were anesthetized with 3% isoflurane in a mixture of nitrous oxide and oxygen (2:1) for induction of anesthesia and then maintained at 1-3% isoflurane in a mixture of nitrous oxide and oxygen (2:1). The surgical site skin was shaved, and the rat was then placed in a stereotaxic frame. Buprenorphine SR, s.c, (0.9-1.2 mg/kg Zoopharm: Lot: BSR1-142111) and Cefazolin, i.p., (40-50 mg/kg; Hospira: Lot: 101D032) was given at this time. The skull was exposed through a midline incision. A parasagittal craniotomy (5 mm) using a trephine drill was performed at 1 mm posterior to bregma and 1 mm lateral to the midline (outer circumference). A sterile plastic injury tube (the plastic connector hub of a sterile needle cut 1 cm in length and trimmed to fill the craniotomy securely) was placed over the exposed dura and bonded by super glue to the skull. Dental cement was then poured around the injury tube to obtain a complete seal. After the dental cement had hardened, the injury tube was filled with sterile saline and the skin was closed by surgical clips. The animals were then returned to a clean home cage after recovery from the anesthesia.
# (§1) On the day of TBI surgery (Day 0), rats were re-anesthetized with 3% isoflurane in a mixture of nitrous oxide and oxygen (2:1), intubated, connected to a respirator and ventilated with 1-2% isoflurane in a mixture of nitrous oxide and oxygen (2:1). […] The amplitude of the resulting pressure pulse was measured in atmospheres by a pressure transducer. […]
# (§2) Dosing solutions were prepared in a blinded fashion with H, I, M, O and Z labels ready to use. […]
# Limb placing tests were divided into both forelimb and hindlimb tests. For the forelimb-placing test, the examiner held the rat close to a tabletop and scored the rat's ability to place the forelimb on the tabletop in response to whisker, visual, tactile, or proprioceptive stimulation. For the hindlimb placing test, the examiner assessed the rat's ability to place the hindlimb on the tabletop in response to tactile and proprioceptive stimulation. […]
# [2] = test system: fluid percussion model of diffused traumatic brain injury (TBI) in rats; assay: Body swing test, fluid percussion model of diffused TBI; type: in vivo, rat; settings: 45 mg/kg i.v. at 30 minutes and 24 hours after TBI; Day 28; vs vehicle, p<0.05
# Experimental: On the day before TBI surgery (Day −1), rats were anesthetized with 3% isoflurane in a mixture of nitrous oxide and oxygen (2:1) for induction of anesthesia and then maintained at 1-3% isoflurane in a mixture of nitrous oxide and oxygen (2:1). The surgical site skin was shaved, and the rat was then placed in a stereotaxic frame. Buprenorphine SR, s.c, (0.9-1.2 mg/kg Zoopharm: Lot: BSR1-142111) and Cefazolin, i.p., (40-50 mg/kg; Hospira: Lot: 101D032) was given at this time. The skull was exposed through a midline incision. A parasagittal craniotomy (5 mm) using a trephine drill was performed at 1 mm posterior to bregma and 1 mm lateral to the midline (outer circumference). […]
# as §1, §2
# The rat was held approximately one inch from the base of its tail. […] A swing was recorded whenever the rat moved its head out of the vertical axis to either side. The rat must have returned to the vertical position for the next swing to be counted. Thirty (30) total swings were counted. […]
smiles,measurement,setting,value
"CC(NC(=O)C(CCC(=O)O)NC(=O)CCCCC1CCSS1)C(=O)O [CMX-2043, N—(R)-lipoyl-glutamylalanine]",Limb placing test recovery,[1]; 15 mg/kg i.v. at 30 minutes and 24 hours after TBI,superior recovery compared to vehicle-treated animals
same,Limb placing test recovery,[1]; 30 mg/kg i.v. at 30 minutes and 24 hours after TBI,superior recovery compared to vehicle-treated animals
same,Limb placing test recovery,[1]; 45 mg/kg i.v. at 30 minutes and 24 hours after TBI,superior recovery compared to vehicle-treated animals
same,Body swing test recovery,[2],superior recovery compared to vehicle-treated animals
